Reference: paper PMC10866962, “Molecular docking of bioactive compounds extracted and purified from selected medicinal plant species against covid-19 proteins and in vitro evaluation” (Scientific Reports, 2024)
≈ marks a conversion by molar mass, not a printed value.

Key:
[1] = DPPH free radical scavenging assay; conditions: for antioxidant potential (free radical scavenging) in DPPH assay: at 200 µg/mL; for IC50 in DPPH assay: calculated by linear regression equation
Protocol: The DPPH assay was performed according to the protocol of Ghasemi et al.[40] with little modifications. For DPPH solution, 3 mg of DPPH powder was dissolved in 100 mL methanol. […] Different serial dilutions (25, 50, 100, and 200 μg/mL) were prepared. The 3 mL DPPH methanolic solution was added to 400 μL compounds methanolic solution. The mixture was continuously shaken and stored at room temperature under shade for exactly 30 min. The absorbance of reaction mixture was measured at 515 nm spectrophotometrically. […] The experiment was repeated three times and percentage inhibition was calculated as follows.

[2] = test system: brine shrimp nauplii; experiment: Brine shrimp lethality assay (BSLA); conditions: 24 h; for mortality rate / cytotoxic effect in brine shrimp lethality assay: at highest 200 µg/mL concentration; for mortality at 200 µg/mL: read-out: mortality rate / cytotoxic effect in brine shrimp lethality assay
[3] = ABTS free radical scavenging assay; design: IC50 values in ABTS assay (Table 2): unit not given beside the values; conditions: for free radical scavenging potential in ABTS assay: at 200 µg/mL; for IC50 value in ABTS assay / IC50 values in ABTS assay (Table 2): calculated by linear regression equation; for IC50 values in ABTS assay (Table 2): unit not given
[4] = test system: S. aureus; experiment: Agar well diffusion method; format: cell-based; conditions: for zone of inhibition: S. aureus, compound solution 0.6 mg/mL, 40 μL per well, 24 h at 37 °C
Protocol: (§1) Allowed it to solidify for 15 min. […] The experiment was run in triplicates.

[5] = test system: P. aeruginosa; experiment: Agar well diffusion method; format: cell-based; conditions: compound solution 0.6 mg/mL, 40 μL per well, 24 h at 37 °C
Protocol: as §1

[6] = test system: Klebsiella pneumoniae; experiment: Agar well diffusion method; conditions: for zone of inhibition: compound solution 0.6 mg/mL, 40 μL per well, 24 h at 37 °C; for zone of inhibition at 600 µg/mL: 24 h
Protocol: (§2) Antibacterial activity of compounds was determined by agar well diffusion method[42]. Antibacterial activity of different compounds was tested against seven clinical pathogens (Klebsiella pneumonia, Escherichia coli, Xanthomonas, S. aureus, Salmonella, P. aeruginosa and S. epidermitis). The nutrient agar medium was prepared by dissolving 6 g agar nutrient powder in 250 mL distilled water. The media was autoclaved and poured into pre-labeled petri plates under sterile condition. Then rinsed these plates with bacterial suspension before solidification. Allowed it to solidify for 15 min. Compound solution of 0.6 mg/mL was used. Cefixime with 1 mg/1 mL was used as positive control whereas DMSO was used as negative control. After solidification made wells of 6 mm using sterile cork borer. Each well was sealed with 20 μL of agar. After sealing 40 μL of each compound solution was added in well. The petri plates were sealed by para-film and kept in incubator for 24 h at 37 °C. The experiment was run in triplicates. The zone of inhibition of bacterial growth was measured with scale in mm.

[7] = test system: Xanthomonas; experiment: Agar well diffusion method; format: cell-based; conditions: for zone of inhibition: compound solution 0.6 mg/mL, 40 μL per well, 24 h at 37 °C
Protocol: as §2

[8] = test system: Salmonella; experiment: Agar well diffusion method; format: cell-based; conditions: compound solution 0.6 mg/mL, 40 μL per well, 24 h at 37 °C
Protocol: as §1

[9] = test system: E. coli; experiment: Agar well diffusion method; format: cell-based, Escherichia coli; conditions: compound solution 0.6 mg/mL, 40 μL per well, 24 h at 37 °C
Protocol: as §1

| Molecule | IC50 in DPPH assay [1] | free radical scavenging potential in ABTS assay [3] | IC50 value in ABTS assay [3] | IC50 values in ABTS assay (Table 2) [3] | mortality at 200 µg/mL [2] | other results |
| --- | --- | --- | --- | --- | --- | --- |
| O=c1c2cc(O)c(O)cc2oc2c([C@@H]3O[C@H](CO)[C@@H](O)[C@H](O)[C@H]3O)c(O)cc(O)c12 [Isomangiferrin] | 93.86 µg/mL (≈ 222 µM) | 62% | 124.19 µg/mL (≈ 294 µM) | 124.2 | – | antioxidant potential (free radical scavenging) in DPPH assay [1]: 78.32%; IC50 in DPPH assay ([1]; listed as isomangiferrin): 93.85 µg/mL (≈ 222 µM); mortality rate / cytotoxic effect in brine shrimp lethality assay [2]: 55%; zone of inhibition [4]: 32 mm; zone of inhibition [5]: 5 mm; zone of inhibition [6]: 28 mm |
| O=C(/C=C/c1ccc(O)cc1)OC[C@H]1O[C@@H](Oc2c(-c3ccc(O)cc3)oc3cc(O)cc(O)c3c2=O)[C@H](O)[C@@H](O)[C@@H]1O [Tiliroside] | 78.77 µg/mL (≈ 132 µM) | 70% | 101.64 µg/mL (≈ 171 µM) | 67.53 | 95% | antioxidant potential (free radical scavenging) in DPPH assay [1]: 77.77%; IC50 in DPPH assay ([1]; listed as tiliroside): 78.77 µg/mL (≈ 132 µM); LD50 value in brine shrimp lethality assay [2]: 73.59 µg/mL; zone of inhibition at 600 µg/mL [6]: 24 mm |
| CN1CCC[C@H]1c1cccnc1 [Nicotine, reference compound] | – | – | – | – | 100% | LD50 value in brine shrimp lethality assay [2]: 30.69 µg/mL |
| O=c1c2ccccc2nc2n1CC[C@@H]2O [PH-HM 17, vasicinone] | 124.9 µg/mL (≈ 618 µM) | – | – | 101.6 | – | zone of inhibition [7]: 22 mm |
| O[C@H]1CCN2Cc3ccccc3N=C12 [Vasicine] | 137.7 µg/mL (≈ 732 µM) | 69% | 114.82 µg/mL (≈ 610 µM) | 114.8 | 55% | zone of inhibition at 600 µg/mL ([4]; Staphylococcus aureus, 24 h): 22 mm |
| COc1ccc2c3c([nH]c2c1)C(C)=NCC3 [Harmaline] | 94.84 µg/mL (≈ 443 µM) | 80.71% | 15.79 µg/mL (≈ 73.7 µM) | 15.79 | 80% | zone of inhibition at 600 µg/mL ([7]; 24 h): 23 mm |
| O=c1c2cc(O)c(O)cc2oc2cc(O)c([C@@H]3O[C@H](CO)[C@@H](O)[C@H](O)[C@H]3O)c(O)c12 [Mangiferrin] | 110.4 µg/mL (≈ 261 µM) | 73% | 110.33 µg/mL (≈ 261 µM) | 110.3 | 50% | zone of inhibition at 600 µg/mL [8]: 28 mm; zone of inhibition at 600 µg/mL ([5]; Pseudomonas aeruginosa): 10 mm; zone of inhibition at 600 µg/mL [6]: 32 mm; zone of inhibition at 600 µg/mL ([9]; Escherichia coli): 15 mm |
| Quercitin-3-O rhamnoside [Quercitin-3-O-rhamnoside] | 185.27 µg/mL | – | – | – | – | IC50 in DPPH assay ([1]; listed as Quercetin-3-O- rahmnoside): 185.3 µg/mL; zone of inhibition [6]: 22 mm |
| COc1ccc2c(c1)[nH]c1c(C)nccc12 [Harmine] | – | – | – | – | 65% | – |
| O=C1O[C@H]([C@@H](O)CO)C(O)=C1O [Ascorbic acid, reference compound] | 97.065 µg/mL (≈ 551 µM) | 90% | 14.77 µg/mL (≈ 83.9 µM) | 14.77 | – | – |
| O=C(c1ccc(O)cc1)c1c(O)cc(O)c([C@@H]2O[C@H](CO)[C@@H](O)[C@H](O)[C@H]2O)c1O [Irriflophenone-3-C-β-D-glucopyranoside] | 125 µg/mL (≈ 306 µM) | 71% | 112.63 µg/mL (≈ 276 µM) | 112.6 | – | zone of inhibition [7]: 19 mm; mortality rate / cytotoxic effect in brine shrimp lethality assay [2]: 65%; zone of inhibition [4]: 28 mm; zone of inhibition [8]: 31 mm; zone of inhibition [5]: 8 mm; zone of inhibition [6]: 30 mm; zone of inhibition [9]: 34 mm |
| O=c1c(O[C@@H]2O[C@H](CO)[C@@H](O)[C@H](O)[C@H]2O)c(-c2ccc(O)cc2)oc2cc(O)cc(O)c12 [Astragalin] | 100.9 µg/mL (≈ 225 µM) | 78% | – | 49.41 | 55% | zone of inhibition at 600 µg/mL [6]: 26 mm |
